From US8501153B2, “Active enantiomer” (GE Healthcare Limited, priority 2009, dated 2013)
Like-named read-outs stand apart in the source and are kept apart here.

Columns and labels:
human PBR = human PBR (Homo sapiens, UniProt P30536); test: In vitro potency assay, competition binding against [3H]PK-11195, human PBR
Procedure: (§1) Affinity for PBR was screened using a method adapted from Le Fur et al (Life Sci. 1983; USA 33: 449-57). Non-radioactive analogues of the PET tracer of the invention and the associated racemate were tested. Each test compound (dissolved in 50 mM Tris-HCl, pH 7.4, 10 mM MgCl2 containing 1% DMSO) competed for binding to either Wistar rat heart PBR or human PBR against 0.3 nM [^3H] PK-11195. The reaction was carried out in 50 mM Tris-HCl, pH 7.4 10 mM MgCl2 for 15 minutes at 25° C.

Wistar rat heart PBR = target: T1, Wistar rat heart PBR (Rattus norvegicus, UniProt P16257); test: In vitro potency assay, competition binding against [3H]PK-11195, rat heart PBR
T1 construct: from tissue; host or cells: Wistar rat heart
Procedure: as §1

In vivo biodistribution = conditions: for OB:Str 30 min: olfactory bulb to striata ratio; for OB:Str 30 min / OB 30 min: 30 min after injection; for OB 30 min: olfactory bulb, i.v.; for OB 30 min / Brain 2 min: rat; for Brain 2 min: i.v. tail vein, 2 min after injection
Procedure: Adult male Wistar rats (200-300 g) were injected with 1-3 MBq of test compound via the lateral tail vein. At 2, 10, 30 or 60 min (n=3) after injection, rats were euthanised and tissues or fluids were sampled for radioactive measurement on a gamma counter.

[1] = In vivo metabolism study (% parent in brain and plasma by HPLC); conditions: for Brain (% parent) 10 min pi / Brain (% parent) 30 min pi / Brain (% parent) 60 min pi: rat brain; for Brain (% parent) 10 min pi / Plasma (% parent) 10 min pi: 10 min post injection; for Brain (% parent) 30 min pi / Plasma (% parent) 30 min pi: 30 min post injection; for Brain (% parent) 60 min pi / Plasma (% parent) 60 min pi: 60 min post injection; for Plasma (% parent) 10 min pi / Plasma (% parent) 30 min pi / Plasma (% parent) 60 min pi: rat plasma
Procedure: The amount of brain or plasma activity that was due to parent test compound was tested up to 1 hour post-administration.
Adult male Wistar rats (150-200 g) were injected with approximately 20 MBq of test compound. Brain and plasma samples were analysed by HPLC at 10, 30 and 60 minutes pi.

[2] = In vitro chiral stability assay in rat liver S9 fraction; format: in vitro ADME; conditions: non-radioactive; 37° C., 4 hours; chiral HPLC
Procedure: (§2) The non-radioactive PET tracer of the invention obtained according to Example 2 was incubated (37° C.) in human plasma or in rat liver S9 fraction up to 4 hours. The enantiomers were extracted from the biological material by precipitation of proteins. The solid precipitate was separated from the liquid phase, which was evaporated to dryness. The dry residue was dissolved in acetonitrile.
(§3) A Dionex Ultimate 3000 HPLC system consisting of two pumps (micro pump LPG-3000 and Ultimate 3000 pump), a UV/visible detector, an auto sampler and two switching valves was applied in this study. One switching valve was connecting the two pumps and the auto sampler. This set-up made it possible to use either of the pumps to inject into the column. The pump used for injection was connected to the SPE column only. After the injection and elution the SPE column was washed using the injection pump. The system was made ready for a new injection while the chiral analysis was ongoing.
(§4) The other switching valve connected the analytical column and the SPE column. […]
(§5) Elution from the SPE column and separation: The elution started using mobile phase mixture of 10% MeCN and 90% 10 mM ammonium acetate. […] The analytical column was washed for 3 min using 70% MeCN/MeOH and then stabilized at 10% MeCN/MeOH to make the separation system ready for the next injection. […]

PBR [3] = target: T2, PBR (Rattus norvegicus, UniProt P16257); test: Facial nerve axotomy model of inflammation, in vitro autoradiography of tissue sections; format: binding, Wistar rats; conditions: for Naïve brain stem % specific binding, Unlabelled ligand / Olfactory bulb % specific binding, Unlabelled ligand / FNA brain stem % specific binding, Unlabelled ligand: blocked with non-radioactive PET tracer at 1 μM; for Naïve brain stem % specific binding, PK11195 / Olfactory bulb % specific binding, PK11195 / FNA brain stem % specific binding, PK11195: blocked with non-radioactive PK11195 at 1 μM; for FNA brain stem % specific binding, Unlabelled ligand / FNA brain stem % specific binding, PK11195: facial nerve axotomy
T2 construct: Various tissues including brain stem and olfactory bulb were removed from the animals; from tissue; host or cells: Wistar rat, in vivo tissues (A7); frozen sections of brain stem and olfactory bulb (A8)
Procedure: Binding to a focal site of neuroinflammation was tested by autoradiography.
Male Wistar rats (200-300 g) were either used naïve, or underwent a facial nerve axotomy according to the procedure described by Graeber and Kreutzberg (J Neurocytol 1986; 15: 363-373). Various tissues including brain stem and olfactory bulb were removed from the animals and rapidly frozen in isopentane then stored at −70° C. until use. Tissues were sectioned (12 μm) and thaw-mounted onto Superfrost Plus slides. Slides were stored at −70° C. until use.
The slides were air dried prior to pre-incubation in Tris-HCl buffer (170 mM, pH 7.4) for 5 min at room temperature. 1000-fold excess of non-radioactive PK11195 at 1 μM, or non-radioactive PET tracer of the invention at 1 μM was added prior to incubation with Tris-HCl buffer (170 mM, pH 7.4) containing […] of test compound for 60 minutes. The reaction was then terminated by rinsing the sections two times for 5 mins each in ice-cold buffer (Tris-HCl, 170 mM, pH 7.4) and then the slides were dipped briefly in distilled water to rinse. Next the slides were dried in air and exposed to x-ray film. When exposing to x-ray film, a reference standard was included, for in vitro autoradiography a reference sample (20μ) was taken from the solution and placed on filter paper (taped onto a glass) and exposed together with the sections. The film was exposed for 24 hours and the data were analysed by drawing regions of interest around the specific anatomic structures as well as around the blocked samples, references and background using MCID software using a density gradient scale as a calibration curve adjusted to the reference sample.

[4] = In vitro chiral stability assay in human plasma; format: in vitro ADME; conditions: non-radioactive; 37° C., 4 hours; chiral HPLC
Procedure: as §2, §3, §4, §5

PBR [5] = target: T2, PBR; test: In vivo blocking assay (biodistribution after pre-administration of PK11195 or non-radioactive analogue); set-up: species or system Wistar rats; conditions: 30 min after injection; for Blood (% of vehicle), PK11195 block / Lungs (% of vehicle), PK11195 block / Muscle (% of vehicle), PK11195 block / Olfactory bulb uptake (% of vehicle), PK11195 block / Striata uptake (% of vehicle), PK11195 block: PK11195 3 mg/kg 5 min before tracer; for Blood (% of vehicle), Non-radioactive Analogue block / Lungs (% of vehicle), Non-radioactive Analogue block / Muscle (% of vehicle), Non-radioactive Analogue block / Olfactory bulb uptake (% of vehicle), Non-radioactive Analogue block / Striata uptake (% of vehicle), Non-radioactive Analogue block: non-radioactive analogue 3 mg/kg 5 min before tracer
Procedure: The in vivo biodistributions of the PET tracer of the invention compared with its associated racemate were tested after pre-administration of their respective non-radioactive analogues, or pre-administration of the known PBR-specific ligand, PK11195.
PK11195 or a non-radioactive analogue (both at 3 mg/kg) was administered 5 min before the radiolabelled test compound.

[6] = non-radioactive analogues tested, against 0.3 nM [3H]PK-11195, 15 minutes at 25° C., read-out: Human Ki
[7] = non-radioactive analogues tested, against 0.3 nM [3H]PK-11195, 15 minutes at 25° C., read-out: Rat Heart Ki

Sequence of human PBR (P30536 whole entry): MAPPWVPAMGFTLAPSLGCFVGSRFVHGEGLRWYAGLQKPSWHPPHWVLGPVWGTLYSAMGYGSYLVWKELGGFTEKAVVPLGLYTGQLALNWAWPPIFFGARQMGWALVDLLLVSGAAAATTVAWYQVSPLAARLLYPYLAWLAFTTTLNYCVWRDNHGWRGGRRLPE

CCN(CC)C(=O)[C@@H]1CCCc2c1c1c(OC)cccc1n2CC[18F] [Alternative Enantiomer]
Ki (human PBR; [6]): 14.1 nM
Ki (Wistar rat heart PBR; [7]): 3.87 nM
OB:Str 30 min (In vivo biodistribution): 2.9
OB 30 min (In vivo biodistribution): 0.23 % ID/g
Brain 2 min (In vivo biodistribution): 0.53 % ID/g

CCN(CC)C(=O)[C@H]1CCCc2c1c1c(OC)cccc1n2CC[18F] [PET Tracer of Invention]
Ki (human PBR; [6]): 9.17 nM
Brain (% parent) 10 min pi [1]: 98 ± 2 % parent
Brain (% parent) 30 min pi [1]: 96 ± 2 % parent
Brain (% parent) 60 min pi [1]: 94 ± 2 % parent
Plasma (% parent) 10 min pi [1]: 70 ± 18 % parent
Plasma (% parent) 30 min pi [1]: 41 ± 16 % parent
Plasma (% parent) 60 min pi [1]: 21 ± 5 % parent
Ki (Wistar rat heart PBR; [7]): 0.87 nM
racemisation after incubation in rat liver S9 fraction [2]: did not racemise
Naïve brain stem % specific binding, Unlabelled ligand (PBR [3]): 70 % specific binding
Olfactory bulb % specific binding, Unlabelled ligand (PBR [3]): 77 % specific binding
Naïve brain stem % specific binding, PK11195 (PBR [3]): 70 % specific binding
Olfactory bulb % specific binding, PK11195 (PBR [3]): 75 % specific binding
FNA brain stem % specific binding, Unlabelled ligand (PBR [3]): 86 % specific binding
FNA brain stem % specific binding, PK11195 (PBR [3]): 86 % specific binding
OB:Str 30 min (In vivo biodistribution): 3.2
OB 30 min (In vivo biodistribution): 0.45 % ID/g
Brain 2 min (In vivo biodistribution): 0.53 % ID/g
racemisation after incubation in human plasma [4]: No racemisation was observed
Blood (% of vehicle), PK11195 block (PBR [5]): 289 % of vehicle
Lungs (% of vehicle), PK11195 block (PBR [5]): 14 % of vehicle
Muscle (% of vehicle), PK11195 block (PBR [5]): 131 % of vehicle
Olfactory bulb uptake (% of vehicle), PK11195 block (PBR [5]): 43 % of vehicle
Striata uptake (% of vehicle), PK11195 block (PBR [5]): 117 % of vehicle
Blood (% of vehicle), Non-radioactive Analogue block (PBR [5]): 253 % of vehicle
Lungs (% of vehicle), Non-radioactive Analogue block (PBR [5]): 12 % of vehicle
Muscle (% of vehicle), Non-radioactive Analogue block (PBR [5]): 143 % of vehicle
Olfactory bulb uptake (% of vehicle), Non-radioactive Analogue block (PBR [5]): 37 % of vehicle
Striata uptake (% of vehicle), Non-radioactive Analogue block (PBR [5]): 114 % of vehicle

CCN(CC)C(=O)C1CCCc2c1c1c(OC)cccc1n2CC[18F] (racemic) [Racemate]
Ki (human PBR): 11.5 nM
Brain (% parent) 10 min pi [1]: 100 ± 0 % parent
Brain (% parent) 30 min pi [1]: 97 ± 1 % parent
Brain (% parent) 60 min pi [1]: 91 ± 2 % parent
Plasma (% parent) 10 min pi [1]: 81 ± 4 % parent
Plasma (% parent) 30 min pi [1]: 49 ± 12 % parent
Plasma (% parent) 60 min pi [1]: 28 ± 1 % parent
Ki (Wistar rat heart PBR): 1.47 nM
Naïve brain stem % specific binding, Unlabelled ligand (PBR [3]): 21 % specific binding
Olfactory bulb % specific binding, Unlabelled ligand (PBR [3]): 59 % specific binding
Naïve brain stem % specific binding, PK11195 (PBR [3]): 13 % specific binding
Olfactory bulb % specific binding, PK11195 (PBR [3]): 67 % specific binding
FNA brain stem % specific binding, Unlabelled ligand (PBR [3]): 72 % specific binding
FNA brain stem % specific binding, PK11195 (PBR [3]): 69 % specific binding
OB:Str 30 min (In vivo biodistribution): 3.0
OB 30 min (In vivo biodistribution): 0.36 % ID/g
Brain 2 min (In vivo biodistribution): 0.52 % ID/g
Blood (% of vehicle), PK11195 block (PBR [5]): 247 % of vehicle
Lungs (% of vehicle), PK11195 block (PBR [5]): 13 % of vehicle
Muscle (% of vehicle), PK11195 block (PBR [5]): 90 % of vehicle
Olfactory bulb uptake (% of vehicle), PK11195 block (PBR [5]): 37 % of vehicle
Striata uptake (% of vehicle), PK11195 block (PBR [5]): 114 % of vehicle
Blood (% of vehicle), Non-radioactive Analogue block (PBR [5]): 289 % of vehicle
Lungs (% of vehicle), Non-radioactive Analogue block (PBR [5]): 11 % of vehicle
Muscle (% of vehicle), Non-radioactive Analogue block (PBR [5]): 140 % of vehicle
Olfactory bulb uptake (% of vehicle), Non-radioactive Analogue block (PBR [5]): 59 % of vehicle
Striata uptake (% of vehicle), Non-radioactive Analogue block (PBR [5]): 124 % of vehicle
